Measurements as given in US6759547B1, “5,6,7,8-tetrahydronaphthalen-2-yl 2,6-difluoroheptatrienoic acid derivatives having serum glucose reducing activity” (Allergan, Inc., priority 2003, dated 2004).

Tests used:
RXRα = biological target: T1, RXRα (Homo sapiens, UniProt P19793); assay: holoreceptor transactivation assay, RXRα; type: cell-based; details: efficacy as a percentage compared to the standard compound
T1 construct: expressed in transfected cells
T1 sequence (P19793 1-462): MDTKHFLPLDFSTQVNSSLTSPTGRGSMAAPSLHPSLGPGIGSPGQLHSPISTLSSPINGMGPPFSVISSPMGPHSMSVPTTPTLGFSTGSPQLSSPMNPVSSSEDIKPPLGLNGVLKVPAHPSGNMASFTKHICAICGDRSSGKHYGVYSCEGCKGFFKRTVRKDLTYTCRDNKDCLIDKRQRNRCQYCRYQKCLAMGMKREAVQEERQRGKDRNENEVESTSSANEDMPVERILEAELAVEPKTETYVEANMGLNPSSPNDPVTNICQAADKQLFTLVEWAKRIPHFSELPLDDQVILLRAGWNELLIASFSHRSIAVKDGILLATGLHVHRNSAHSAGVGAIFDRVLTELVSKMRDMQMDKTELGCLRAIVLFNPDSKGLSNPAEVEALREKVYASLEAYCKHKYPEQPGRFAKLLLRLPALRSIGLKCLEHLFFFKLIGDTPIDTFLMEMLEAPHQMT
Source text: (§1) Particularly, the transactivation data pertaining to activation of the RAR receptors were obtained in the chimeric assay, and the transactivation data pertaining to the activation of RXR receptors were obtained in the holoreceptor assay.

[1] = tested on: female diabetic db/db mice; assay: serum glucose, triglyceride and thyroxine levels in db/db mice; type: in vivo
Procedure: An assay described below tests the effect of compounds of the invention on serum glucose, tryglyceride and thyroxine levels in female 9-10 weeks old db/db mice.
Blood samples (70 μl) were taken by orbital bleeding at 11:00 AM on day 0 (pre-treatment), day 3, and day 6. On day 7, a blood sample (700 μl) was taken at 11:00 AM and the animals were sacrificed. Glucose, triglyceride and thyroxine (T4) levels were determined on a Boehringer Manheim Hatachi Clinical Chemistry Analyzer using standard protocols provided by the manufacturer and reagents that were supplied in commercially available kits (glucose and T4; Boehringer Manheim; triglycerides: Roche Diagnostics). Seven animals were treated in each group.

RXRβ = biological target: T2, RXRβ (Homo sapiens, UniProt P28702); assay: holoreceptor transactivation assay, RXRβ; type: cell-based
T2 construct: expressed in transfected cells
T2 sequence (P28702 1-533): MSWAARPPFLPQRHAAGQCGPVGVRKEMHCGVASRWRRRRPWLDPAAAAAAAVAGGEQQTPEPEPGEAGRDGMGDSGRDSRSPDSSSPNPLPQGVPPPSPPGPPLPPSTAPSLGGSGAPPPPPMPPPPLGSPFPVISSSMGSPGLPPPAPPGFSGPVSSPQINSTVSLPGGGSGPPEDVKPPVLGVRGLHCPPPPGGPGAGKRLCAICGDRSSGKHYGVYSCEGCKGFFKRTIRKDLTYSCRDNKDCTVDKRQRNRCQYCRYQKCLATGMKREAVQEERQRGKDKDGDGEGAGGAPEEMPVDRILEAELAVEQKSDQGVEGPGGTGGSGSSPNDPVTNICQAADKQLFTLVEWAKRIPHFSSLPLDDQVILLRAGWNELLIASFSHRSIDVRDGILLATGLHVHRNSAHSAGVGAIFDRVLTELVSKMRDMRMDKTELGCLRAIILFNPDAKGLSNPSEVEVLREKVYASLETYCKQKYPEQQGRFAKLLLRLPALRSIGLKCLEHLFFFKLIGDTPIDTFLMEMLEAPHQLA
Source text: as §1

[2] = female db/db mice, day 0 (pre-treatment), groups: standard compound 5 mg/kg, Compound 27 50 mg/kg
[3] = female db/db mice, oral gavage daily, standard compound 5 mg/kg, Compound 27 50 mg/kg

RXR Trans. efficacy α (RXRα): 100% | T4 Day 7 ([1]; female db/db mice, oral gavage daily for seven days, standard compound 5 mg/kg, Compound 27 50 mg/kg): 2.6 ± 0.6 µg/dL | RXR Trans. efficacy β (RXRβ; efficacy as a percentage compared to the standard compound): 100%
SMILES: CC(/C=C/[C@@H]1C[C@]1(C)c1ccc2c(c1)C(C)(C)CCC2(C)C)=C\C(=O)O [Standard compound, (2E,4E,1'S,2'S)-3-methyl-5-[2′-methyl-2′-(5,5,8,8-tetramethyl-5,6,7,8-tetrahydro-naphthalen-2-yl)-cyclopropyl]-penta-2,4-dienoic acid]
effect on serum thyroxine levels ([1]; diabetic mammals (db/db mice), in words): undesirable side effect of reducing serum thyroxine levels | Glucose Day 0 [1, 2]: 356 mg/dL | Triglycerides Day 0 [1, 2]: 152 mg/dL | Glucose Day 3, 3 h [1, 3]: 249 mg/dL | Glucose Day 6, 3 h [1, 3]: 239 mg/dL | Triglycerides Day 3, 3 h [1, 3]: 137 mg/dL | efficacy in activating RXRβ compared with RXRα and RXRγ (RXRβ; transactivation, comparison of subtypes): approximately equally efficacious in activating the RXRα, RXRβ and RXRγ subtypes
